Reference: EP4001279A1, “NOVEL SPIROPYRROLIDINE DERIVED ANTIVIRAL AGENTS” (Enanta Pharmaceuticals, Inc., priority 2020, dated 2022)
Where two headings read alike, the source gives them in different places.

Key:
SARS-CoV-2 3CL-protease = SARS-CoV-2 3CL-protease (Severe acute respiratory syndrome coronavirus 2, UniProt P0DTD1); test: SARS-CoV-2 3C-like (3CL) protease fluorescence assay (FRET); assay type: biochemical; conditions: read-out: FRET IC50
[1] = test system: 229E human corona virus (hCoV); test: 229E live virus assay (CPE, ATPlite readout in MRC-5 cells); assay type: cell-based, hCoV-229E; conditions: Human coronavirus 229E, MRC5, hCoV-229E live virus, MOI 0.05, ATPlite readout, run in duplicate
[2] = SARS-CoV-2 3CL-protease 10 nM, 30 min preincubation at RT, substrate 40 µM, test compounds 0 - 10 µM, duplicate

## COc1cccc2[nH]c(C(=O)N[C@@H](COC(C)(C)C)C(=O)N3C[C@]4(C[C@H]3C#N)C(=O)Nc3ccccc34)cc12 [Example 124]
SARS-CoV-2 3CL-protease
  IC50: < 100 nM
[1]
  EC50: < 100 nM

## CC(C)(C)OC[C@H](NC(=O)c1cc2c(F)cc(F)cc2[nH]1)C(=O)N1C[C@]2(C[C@H]1C#N)C(=O)Nc1ccccc12 [Example 125]
SARS-CoV-2 3CL-protease
  IC50: < 100 nM
[1]
  EC50: 100 to 1000 nM

## CC(C)(C)CC(NC(=O)c1cnn(-c2ccc(F)cc2)c1)C(=O)N1CC2(CC1C#N)C(=O)Nc1ccccc12 (centres unmarked) [Example 146]
SARS-CoV-2 3CL-protease
  IC50: < 100 nM
[1]
  EC50: < 100 nM

## CC(C)C[C@H](NC(=O)c1cc2c(F)cc(F)c(F)c2[nH]1)C(=O)N1C[C@]2(C[C@H]1C#N)C(=O)Nc1ccccc12 [Example 152]
SARS-CoV-2 3CL-protease; [2]
  IC50: < 100 nM

## CC(C)C[C@@H](C(=O)N1C[C@]2(C[C@H]1C(=O)C(=O)NC1CCCCC1)C(=O)Nc1ccccc12)N(C)C(=O)c1cc2c(F)cc(F)c(F)c2[nH]1 [Example 156]
SARS-CoV-2 3CL-protease
  IC50: > 1000 nM
[1]
  EC50: > 1000 nM

## CC(C)C[C@@H](C(=O)N1C[C@]2(C[C@H]1C#N)C(=O)Nc1ccccc12)N(C)C(=O)c1ccccc1OC(F)F [Example 176]
SARS-CoV-2 3CL-protease
  IC50: < 100 nM
[1]
  EC50: < 100 nM

## CC(C)C[C@@H](C(=O)N1C[C@]2(C[C@H]1C#N)C(=O)Nc1ccccc12)N(C)C(=O)c1cc2cc(Br)ccc2cn1 [Example 230]
SARS-CoV-2 3CL-protease
  IC50: 100 to 1000 nM
[1]
  EC50: < 100 nM

## COc1cc(C(=O)N(C)[C@@H](CC(C)C)C(=O)N2C[C@]3(C[C@H]2C#N)C(=O)Nc2ccccc23)cn2cc(C(F)F)nc12 [Example 255]
SARS-CoV-2 3CL-protease
  IC50: < 100 nM
[1]
  EC50: < 100 nM

## CC(C)C[C@@H](C(=O)N1C[C@]2(C[C@H]1C#N)C(=O)Nc1ccccc12)N(C)C(=O)[C@@H]1C[C@H]1c1ccccc1 [Example 280]
SARS-CoV-2 3CL-protease
  IC50: < 100 nM
[1]
  EC50: < 100 nM

## CC(C)CC(C(=O)N1CC2(CC1C#N)C(=O)Nc1ccccc12)N(C)C(=O)c1nccc2ccccc12 (centres unmarked) [Example 300]
SARS-CoV-2 3CL-protease; [2]
  IC50: 100 to 1000 nM

## CC(C)CC(C(=O)N1CC2(CC1C#N)C(=O)Nc1ccccc12)N(C)C(=O)c1cnc2ccc(F)cc2c1 (centres unmarked) [Example 337]
SARS-CoV-2 3CL-protease; [2]
  IC50: < 100 nM

## COC[C@@H](C(=O)N1C[C@]2(C[C@H]1C#N)C(=O)Nc1ccccc12)N(C)C(=O)c1cc2c(F)cc(F)cc2[nH]1 [Example 369]
SARS-CoV-2 3CL-protease; [2]
  IC50: < 100 nM

## CN(C(=O)c1cc2c(F)cc(F)cc2[nH]1)[C@@H](Cc1ccc(O)cc1)C(=O)N1C[C@]2(C[C@H]1C#N)C(=O)Nc1ccccc12 [Example 388]
SARS-CoV-2 3CL-protease; [2]
  IC50: < 100 nM

## [2H]C([2H])([2H])N(C(=O)c1cnn(CC(F)(F)F)c1)[C@@H](CCCC)C(=O)N1C[C@]2(C[C@H]1C#N)C(=O)Nc1ccccc12 [Example 394]
SARS-CoV-2 3CL-protease; [2]
  IC50: < 100 nM

## CN(C(=O)c1cnn(C(C)(C)C)c1)[C@@H](CC1CC1)C(=O)N1C[C@]2(C[C@H]1C#N)C(=O)Nc1ccccc12 [Example 404]
SARS-CoV-2 3CL-protease; [2]
  IC50: < 100 nM

## [2H]C([2H])([2H])N(C(=O)C(O)c1ccc(F)cc1)C(CCCC)C(=O)N1CC2(CC1C#N)C(=O)Nc1ccccc12 (centres unmarked) [Example 420]
SARS-CoV-2 3CL-protease; [2]
  IC50: < 100 nM

## [2H]C([2H])([2H])N(C(=O)C(O)c1ccc(F)cc1)C(CCCC)C(=O)N1CC2(CC1C#N)C(=O)Nc1ccccc12 (centres unmarked) [Example 421]
SARS-CoV-2 3CL-protease; [2]
  IC50: < 100 nM

## CN(C(=O)Cc1ccncc1)[C@@H](CC(C)(C)F)C(=O)N1C[C@]2(C[C@H]1C#N)C(=O)Nc1ccc(Cl)cc12 [Example 477]
[1]
  EC50: 100 to 1000 nM

## CN(C(=O)C1(c2ccccn2)CC1)[C@@H](CC(C)(C)F)C(=O)N1C[C@]2(C[C@H]1C#N)C(=O)Nc1ccc(Cl)cc12 [Example 478]
[1]
  EC50: 100 to 1000 nM

## CN(C(=O)C1(c2cccnc2)CC1)[C@@H](CC(C)(C)F)C(=O)N1C[C@]2(C[C@H]1C#N)C(=O)Nc1ccc(Cl)cc12 [Example 479]
[1]
  EC50: 100 to 1000 nM

## CN(C(=O)C(F)(F)c1ccncc1)[C@@H](CC(C)(C)F)C(=O)N1C[C@]2(C[C@H]1C#N)C(=O)Nc1ccc(Cl)cc12 [Example 480]
[1]
  EC50: < 100 nM

## CN(C(=O)C(F)(F)c1ccccn1)[C@@H](CC(C)(C)F)C(=O)N1C[C@]2(C[C@H]1C#N)C(=O)Nc1ccc(Cl)cc12 [Example 481]
[1]
  EC50: 100 to 1000 nM

## CN(C(=O)C(F)(F)c1cccnc1)[C@@H](CC(C)(C)F)C(=O)N1C[C@]2(C[C@H]1C#N)C(=O)Nc1ccc(Cl)cc12 [Example 482]
[1]
  EC50: < 100 nM

## CN(C(=O)Cc1ccccn1)[C@@H](CC(C)(C)F)C(=O)N1C[C@]2(C[C@H]1C#N)C(=O)Nc1ccc(Cl)cc12 [Example 483]
[1]
  EC50: 100 to 1000 nM

## CN(C(=O)Cc1cnccn1)[C@@H](CC(C)(C)F)C(=O)N1C[C@]2(C[C@H]1C#N)C(=O)Nc1ccc(Cl)cc12 [Example 484]
[1]
  EC50: 100 to 1000 nM

## CN(C(=O)Cc1cccc(C(F)(F)F)n1)[C@@H](CC(C)(C)F)C(=O)N1C[C@]2(C[C@H]1C#N)C(=O)Nc1ccc(Cl)cc12 [Example 485]
[1]
  EC50: 100 to 1000 nM

## Cc1cccc(C(F)(F)C(=O)N(C)[C@@H](CC(C)(C)F)C(=O)N2C[C@]3(C[C@H]2C#N)C(=O)Nc2ccc(Cl)cc23)n1 [Example 486]
[1]
  EC50: 100 to 1000 nM

## Cc1cccc(CC(=O)N(C)[C@@H](CC(C)(C)F)C(=O)N2C[C@]3(C[C@H]2C#N)C(=O)Nc2ccc(Cl)cc23)n1 [Example 487]
[1]
  EC50: 100 to 1000 nM

## N#C[C@@H]1C[C@@]2(CN1C(=O)[C@H](CC1CC1)NC(=O)OCc1c(F)cccc1F)C(=O)Nc1ccc(Cl)cc12 [Example 492, 2,6-difluorobenzyl ((S)-1-((3R,5'S)-5-chloro-5'-cyano-2-oxospiro[indoline-3,3'-pyrrolidin]-1'-yl)-3-cyclopropyl-1-oxopropan-2-yl)carbamate]
[1]
  EC50: 100 to 1000 nM

## N#C[C@@H]1C[C@@]2(CN1C(=O)[C@H](CC1CC1)NC(=O)OCc1ccc(F)cc1F)C(=O)Nc1ccc(Cl)cc12 [Example 493]
[1]
  EC50: 100 to 1000 nM

## C[C@@H](OC(=O)N[C@@H](CC(C)(C)C)C(=O)N1C[C@]2(C[C@H]1C#N)C(=O)Nc1ccc(Cl)cc12)c1ccc(F)cc1 [Example 495]
[1]
  EC50: 100 to 1000 nM

## CC(C)(C)C[C@H](NC(=O)OC(C)(C)c1ccc(F)cc1)C(=O)N1C[C@]2(C[C@H]1C#N)C(=O)Nc1ccc(Cl)cc12 [Example 496]
[1]
  EC50: > 1000 nM

## CC(C)C[C@@H](C(=O)N1C[C@]2(C[C@H]1C(=O)O)C(=O)Nc1ccc(Cl)cc12)N(C)C(=O)c1cc2c(F)cc(F)cc2[nH]1 [Example 497, (3R,5'S)-5-chloro-1'-(N-(4,6-difluoro-1H-indole-2-carbonyl)-N-methyl-L-leucyl)-2-oxospiro[indoline-3,3'-pyrrolidine]-5'-carboxylic acid]
[1]
  EC50: > 1000 nM

## C=C(C)c1ccc2c(c1)[C@@]1(C[C@@H](C#N)N(C(=O)[C@H](CC(C)C)N(C)C(=O)c3cc4c(F)cc(F)cc4[nH]3)C1)C(=O)N2 [Example 498, N-((S)-1-((3R,5'S)-5'-cyano-2-oxo-5-(prop-1-en-2-yl)spiro[indoline-3,3'-pyrrolidin]-1'-yl)-4-methyl-1-oxopentan-2-yl)-4,6-difluoro-N-methyl-1H-indole-2-carboxamide]
[1]
  EC50: < 100 nM

## CC(=O)c1ccc2c(c1)[C@@]1(C[C@@H](C#N)N(C(=O)[C@H](CC(C)C)N(C)C(=O)c3cc4c(F)cc(F)cc4[nH]3)C1)C(=O)N2 [Example 499, N-((S)-1-((3R,5'S)-5-acetyl-5'-cyano-2-oxospiro[indoline-3,3'-pyrrolidin]-1'-yl)-4-methyl-1-oxopentan-2-yl)-4,6-difluoro-N-methyl-1H-indole-2-carboxamide]
[1]
  EC50: < 100 nM

## CC(C)C[C@@H](C(=O)N1C[C@]2(C[C@H]1C#N)C(=O)Nc1ccc(S(C)(=O)=O)cc12)N(C)C(=O)c1cc2c(F)cc(F)cc2[nH]1 [Example 500, N-((S)-1-((3R,5'S)-5'-cyano-5-(methylsulfonyl)-2-oxospiro[indoline-3,3'-pyrrolidin]-1'-yl)-4-methyl-1-oxopentan-2-yl)-4,6-difluoro-N-methyl-1H-indole-2-carboxamide]
[1]
  EC50: < 100 nM

## COC(=O)c1ccc2c(c1)[C@@]1(C[C@@H](C#N)N(C(=O)[C@H](CC(C)C)N(C)C(=O)c3cc4c(F)cc(F)cc4[nH]3)C1)C(=O)N2 [Example 501, methyl (3R,5'S)-5'-cyano-1'-(N-(4,6-difluoro-1H-indole-2-carbonyl)-N-methyl-L-leucyl)-2-oxospiro[indoline-3,3'-pyrrolidine]-5-carboxylate]
[1]
  EC50: < 100 nM

## CC(C)C[C@@H](C(=O)N1C[C@]2(C[C@H]1C#N)C(=O)Nc1ccc(C(=O)N3CCOCC3)cc12)N(C)C(=O)c1cc2c(F)cc(F)cc2[nH]1 [Example 502, N-((S)-1-((3R,5'S)-5'-cyano-5-(morpholine-4-carbonyl)-2-oxospiro[indoline-3,3'-pyrrolidin]-1'-yl)-4-methyl-1-oxopentan-2-yl)-4,6-difluoro-N-methyl-1H-indole-2-carboxamide]
[1]
  EC50: < 100 nM

## CC(C)C[C@@H](C(=O)N1C[C@]2(C[C@H]1C#N)C(=O)Nc1ccc(N=[N+]=[N-])cc12)N(C)C(=O)c1cc2c(F)cc(F)cc2[nH]1 [Example 503, N-((S)-1-((3R,5'S)-5-azido-5'-cyano-2-oxospiro[indoline-3,3'-pyrrolidin]-1'-yl)-4-methyl-1-oxopentan-2-yl)-4,6-difluoro-N-methyl-1H-indole-2-carboxamide]
[1]
  EC50: < 100 nM

## CC(C)C[C@@H](C(=O)N1C[C@]2(C[C@H]1C#N)C(=O)Nc1ccc(NC(=O)C3(F)CC3)cc12)N(C)C(=O)c1cc2c(F)cc(F)cc2[nH]1 [Example 504, N-((S)-1-((3R,5'S)-5'-cyano-5-(1-fluorocyclopropane-1-carboxamido)-2-oxospiro[indoline-3,3'-pyrrolidin]-1'-yl)-4-methyl-1-oxopentan-2-yl)-4,6-difluoro-N-methyl-1H-indole-2-carboxamide]
[1]
  EC50: < 100 nM

## CC(C)C[C@@H](C(=O)N1C[C@]2(C[C@H]1C#N)C(=O)Nc1ccc(-n3cc(C4CC4)nn3)cc12)N(C)C(=O)c1cc2c(F)cc(F)cc2[nH]1 [Example 505, N-((S)-1-((3R,5'S)-5'-cyano-5-(4-cyclopropyl-1H-1,2,3-triazol-1-yl)-2-oxospiro[indoline-3,3'-pyrrolidin]-1'-yl)-4-methyl-1-oxopentan-2-yl)-4,6-difluoro-N-methyl-1H-indole-2-carboxamide]
[1]
  EC50: < 100 nM

## C[C@@H](OC(=O)N[C@@H](CC(C)(C)C)C(=O)N1C[C@]2(C[C@H]1C#N)C(=O)Nc1ccc(F)cc12)c1ccc(F)cc1 [Example 523]
SARS-CoV-2 3CL-protease; [2]
  IC50: < 100 nM
